According to patent EP1745783A1, “Substituted pyrazoline compounds, their preparation and use as medicaments” (Laboratorios del Dr. Esteve S.A., priority 2005, dated 2007):

Key:
[1] = system: cannabinoid receptors; assay: Mouse tetrad model, agonistic effect; assay type: in vivo, Male NMRI mice; conditions: 5 mg/kg i.v., mice
From the text: (§1) Substances with affinity for cannabinoid receptors are known to produce a wide range of pharmacological effects. It is also known that intravenous administration of a substance with affinity for cannabinoid receptors in mice produces analgesia , hypothermia, sedation and catalepsy. Individually, none of these effects can be considered as proof that a tested substance has affinity for cannabinoid-receptors, since all of these effects are common for various classes of centrally active agents. However, substances, which show all of these effects, i.e. substances that are active in this so-called tetrad model are considered to have affinity for the cannabinoid receptors. It has further been shown that cannabinoid receptor antagonists are higly effective in blocking the effects of a cannabinoid agonist in the mouse tetrad model.
(§2) The tetrad model is described, for example, in the publication of A. C. Howlett et al, International Union of Pharmacology XXVII. Classification of Cannabinoid Receptors, Pharmacol Rev 54, 161-202 , 2002 and David R. Compton et al., "In-vivo Characterization of a Specific Cannabinoid Receptor Antagonist (SR141716A) :Inhibition of Tetrahydrocannbinol- induced Responses and Apparent Agonist Activity", J. Pharmacol. Exp. Ther. 277 , 2, 586-594, 1996. The corresponding parts of the description are hereby incorporated by reference. […]
(§3) Before testing in the behavioral procedures given below, mice are acclimatized to the experimental setting. Pre-Treatment control values are determined for analgesia hot plate latency (in seconds), rectal temperature, sedation and catalepsy.
In order to determine the agonistic activty of the substance to be tested, the mice are injected intravenously with the substance to be tested or the vehicle alone. 15 minutes after injection, latency in hot plate analgesia is measured. Rectal temperature, sedation and catalepsy are measured 20 minutes after injection.
(§4) The hot plate analgesia is determined according to the method described in Woolfe D. et al. "The evaluation of analgesic action of pethidine hydrochloride (Demerol)", J. Pharmacol. Exp. Ther. 80, 300-307,1944. […]
(§5) The mice are placed on a hot plate (Harvard Analgesimeter) at 55 ± 0.5 °C until they show a painful sensation by licking their paws or jumping and the time for these sensations to occur is recorded. This reading is considered the basal value (B). […]
(§6) Fifteen minuts after the administration of the substance to be tested, the mice are again placed on the hot plate and the afore described procedure is repeated. This period is called the post-treatment reading (PT).
(§7) The degree of analgesia is calculated from the formula : %MPE of Analgesia = (PT-B)/(PC-B) × 100 [formula] […]

[2] = system: cannabinoid receptors; assay: Mouse tetrad model, antagonistic effect against Win 55212-2; assay type: in vivo, Male NMRI mice; conditions: 5 mg/kg i.v. prior to Win 55212-2 in a dose of 1,25mg/kg i.v., mice
From the text: as §1, §2, §3
In order to determine the antagonistic activity the identical procedure is used as for the determination of the agonistic effects, but with the difference that the substance to be evaluated for its antagonistic activity is injectected 5 minutes before the intravenous injection of 1.25 mg/kg Win-55,212 a known cannabinoid-receptor agonist.
as §4, §5, §6, §7

O=C(NN1CCCCC1)C1=NN(c2ccc(Cl)cc2Cl)C(c2ccc(Cl)cc2)C1 (centres unmarked) [Example 1, N-piperidinyl-5-(4-chlorophenyl)-1-(2,4-dichlorophenyl)-4,5-dihydro-1H-pyrazole-3-carboxamide]
Agonistic effect A: Hot-Plate test [1]: 0
Agonistic effect B: Hypothermia [1]: 0
Agonistic effect C: Catalepsy [1]: 0
Agonistic effect D: Sedation [1]: 0
Antagonistic Effect A: Hot-Plate test [2]: 74
Antagonistic Effect B: Hypothermia [2]: 100
Antagonistic Effect C: Catalepsy [2]: 100
Antagonistic Effect D: Sedation [2]: 100
